Experimental data: PubChem BioAssay AID1259407 (Chemical Carcinogenesis Research Information System (CCRIS), 2018)
Active and inactive are the calls of the source. How the calls were made is not given here.

Test system: CCRIS mutagenicity, Ames/micronucleus/aberration tests
Test: CCRIS mutagenicity studies
[1] = Test System: AMES SALMONELLA TYPHIMURIUM, Strain/Indicator: TA98, Metabolic Activation: NONE, Method: PREINCUBATION
[2] = Test System: AMES SALMONELLA TYPHIMURIUM, Strain/Indicator: TA100, Metabolic Activation: NONE, Method: PREINCUBATION
[3] = Test System: AMES SALMONELLA TYPHIMURIUM, Strain/Indicator: TA98, Metabolic Activation: NONE, Method: STANDARD PLATE
[4] = Test System: AMES SALMONELLA TYPHIMURIUM, Strain/Indicator: TA100, Metabolic Activation: NONE, Method: STANDARD PLATE

Measured: mutagenic call

Nc1ccc(Oc2ccc([N+](=O)[O-])cc2)cc1
inactive: Test System: AMES SALMONELLA TYPHIMURIUM, Strain/Indicator: TA98(NR), Metabolic Activation: NONE, Method: PREINCUBATION inactive; negative
active: Test System: AMES SALMONELLA TYPHIMURIUM, Strain/Indicator: TA98(NR), Metabolic Activation: RAT, LIVER, S-9, AROCLOR 1254, Method: PREINCUBATION active; positive | [1] active; positive | Test System: AMES SALMONELLA TYPHIMURIUM, Strain/Indicator: TA98, Metabolic Activation: RAT, LIVER, S-9, AROCLOR 1254, Method: PREINCUBATION active; positive | Test System: AMES SALMONELLA TYPHIMURIUM, Strain/Indicator: TA100(NR), Metabolic Activation: NONE, Method: PREINCUBATION active; positive | Test System: AMES SALMONELLA TYPHIMURIUM, Strain/Indicator: TA100(NR), Metabolic Activation: RAT, LIVER, S-9, AROCLOR 1254, Method: PREINCUBATION active; positive | [2] active; positive | Test System: AMES SALMONELLA TYPHIMURIUM, Strain/Indicator: TA100, Metabolic Activation: RAT, LIVER, S-9, AROCLOR 1254, Method: PREINCUBATION active; positive

Oc1cc(Cl)c(Cl)cc1Cl
inactive: Test System: AMES SALMONELLA TYPHIMURIUM, Strain/Indicator: TA98, Metabolic Activation: NONE inactive; negative | Test System: AMES SALMONELLA TYPHIMURIUM, Strain/Indicator: TA98, Metabolic Activation: RAT, LIVER, S-9, AROCLOR 1254 inactive; negative | Test System: AMES SALMONELLA TYPHIMURIUM, Strain/Indicator: TA100, Metabolic Activation: NONE inactive; negative | Test System: AMES SALMONELLA TYPHIMURIUM, Strain/Indicator: TA100, Metabolic Activation: RAT, LIVER, S-9, AROCLOR 1254 inactive; negative | Test System: AMES SALMONELLA TYPHIMURIUM, Strain/Indicator: TA100, Metabolic Activation: RAT, LIVER, S-9, AROCLOR 1254, Method: STANDARD PLATE inactive; negative | Test System: AMES SALMONELLA TYPHIMURIUM, Strain/Indicator: TA102, Metabolic Activation: NONE inactive; negative | Test System: AMES SALMONELLA TYPHIMURIUM, Strain/Indicator: TA102, Metabolic Activation: RAT, LIVER, S-9, AROCLOR 1254 inactive; negative | Test System: AMES SALMONELLA TYPHIMURIUM, Strain/Indicator: TA104, Metabolic Activation: NONE inactive; negative | Test System: AMES SALMONELLA TYPHIMURIUM, Strain/Indicator: TA104, Metabolic Activation: NONE, Method: STANDARD PLATE inactive; negative | Test System: AMES SALMONELLA TYPHIMURIUM, Strain/Indicator: TA104, Metabolic Activation: RAT, LIVER, S-9, AROCLOR 1254 inactive; negative | Test System: AMES SALMONELLA TYPHIMURIUM, Strain/Indicator: TA104, Metabolic Activation: RAT, LIVER, S-9, AROCLOR 1254, Method: STANDARD PLATE inactive; negative | Test System: CHINESE HAMSTER V-79, Strain/Indicator: V-79/6-THIOGUANINE, Metabolic Activation: NONE, Method: STANDARD PLATE inactive; negative
active: Test System: AMES SALMONELLA TYPHIMURIUM, Strain/Indicator: TA97, Metabolic Activation: NONE, Method: STANDARD PLATE active; positive | Test System: AMES SALMONELLA TYPHIMURIUM, Strain/Indicator: TA97, Metabolic Activation: RAT, LIVER, S-9, AROCLOR 1254, Method: STANDARD PLATE active; positive | [3] active; positive | Test System: AMES SALMONELLA TYPHIMURIUM, Strain/Indicator: TA98, Metabolic Activation: RAT, LIVER, S-9, AROCLOR 1254, Method: STANDARD PLATE active; positive | [4] active; positive

Clc1c(Cl)c(Br)c2c(c1Cl)-c1nc-2nc2[n-]c(nc3nc(nc4[n-]c(n1)c1c(Cl)c(Br)c(Cl)c(Br)c41)-c1c(Cl)c(Cl)c(Br)c(Cl)c1-3)c1c(Br)c(Cl)c(Br)c(Cl)c21.[Cu+2]
active: Test System: AMES SALMONELLA TYPHIMURIUM, Strain/Indicator: TA98, Metabolic Activation: HAMSTER, LIVER, S-9, AROCLOR 1254 (10%), Method: PREINCUBATION active; positive | Test System: AMES SALMONELLA TYPHIMURIUM, Strain/Indicator: TA98, Metabolic Activation: RAT, LIVER, S-9, AROCLOR 1254 (10%), Method: PREINCUBATION active; positive | Test System: AMES SALMONELLA TYPHIMURIUM, Strain/Indicator: TA1537, Metabolic Activation: RAT, LIVER, S-9, AROCLOR 1254 (10%), Method: PREINCUBATION active; positive
inactive: [1] inactive; negative | Test System: AMES SALMONELLA TYPHIMURIUM, Strain/Indicator: TA100, Metabolic Activation: HAMSTER, LIVER, S-9, AROCLOR 1254 (10%), Method: PREINCUBATION inactive; negative | [2] inactive; negative | Test System: AMES SALMONELLA TYPHIMURIUM, Strain/Indicator: TA100, Metabolic Activation: RAT, LIVER, S-9, AROCLOR 1254 (10%), Method: PREINCUBATION inactive; negative | Test System: AMES SALMONELLA TYPHIMURIUM, Strain/Indicator: TA1535, Metabolic Activation: HAMSTER, LIVER, S-9, AROCLOR 1254 (10%), Method: PREINCUBATION inactive; negative | Test System: AMES SALMONELLA TYPHIMURIUM, Strain/Indicator: TA1535, Metabolic Activation: NONE, Method: PREINCUBATION inactive; negative | Test System: AMES SALMONELLA TYPHIMURIUM, Strain/Indicator: TA1535, Metabolic Activation: RAT, LIVER, S-9, AROCLOR 1254 (10%), Method: PREINCUBATION inactive; negative | Test System: AMES SALMONELLA TYPHIMURIUM, Strain/Indicator: TA1537, Metabolic Activation: HAMSTER, LIVER, S-9, AROCLOR 1254 (10%), Method: PREINCUBATION inactive; negative | Test System: AMES SALMONELLA TYPHIMURIUM, Strain/Indicator: TA1537, Metabolic Activation: NONE, Method: PREINCUBATION inactive; negative

CCC1(CC)C(=O)NC(=O)NC1=O
active: End Point: IN VITRO MICRONUCLEUS, Test System: CHL/IU CELLS, Metabolic Activation: NONE active; positive

Fc1ccc(F)c2c1ccc1cccnc12
active: Test System: AMES SALMONELLA TYPHIMURIUM, Strain/Indicator: TA100, Metabolic Activation: RAT, LIVER, S-9, PHENOBARBITAL AND 5,6-BENZOFLAVONE, Method: PREINCUBATION active; positive

c1scc2c1-c1cscc1C1NC21 (stereo unspecified)
active: [3] active; positive | [4] active; positive
